Key:
[1] = UV/Vis absorption spectra upon addition of metal ions; assay type: physicochemical; conditions: Cu^2+ 50.0 equiv; HEPES/CH3CN pH 7.2
Description: The photophysical properties of bi-julolidine compounds were investigated by monitoring the absorption spectral behavior upon addition of several metal ions such as Li^+, Na^+, Ba^2+, Sr^2+, Mg^2+, Al^3+, Ca^2+, Mn^2+, Fe^2+, Co^2+, Ni^2+, Zn^2+, Ag^+, Cd^2+, Hg^2+, Pb^2+ and Cu^2+ in an aqueous buffer medium (50 mM, 2-(4-(2-hydroxyethyl)-1-piperazin-yl)ethanesulfonic acid (HEPES)/CH3CN, 6:4, v/v; pH 7.2). […] With the addition of 50.0 equivalents of Co^2+, Ni^2+and Zn^2+, the absorbance intensity decreased and slightly red shifted to different extents (Ni^2+=408.5 nm; Zn^2+=410 nm; Co^2+=409 nm).
Representative examples are shown in FIG. 1 and FIG. 2 using compound 1 and 2, respectively.

[2] = UV/Vis absorption and colorimetric titration with increasing concentrations of Cu^2+; assay type: physicochemical; conditions: for extinction coefficient (ε) in the NIR region at maximum: at the Cu^2+ equivalents giving maximum NIR absorbance; for extinction coefficient (ε) at 570 nm at maximum: at the Cu^2+ equivalents giving maximum absorbance at 570 nm; for NIR λmax at maximum absorbance / final solution color: end of the Cu^2+ titration; for visual color change of solution: increasing concentration of Cu^2+ ions; for NIR band λmax / new absorption band in the visible region (λmax): on first appearance in the Cu^2+ titration (1.0 to 2.0 equivalents); for Cu^2+ added at which absorbance at 570 nm reached a maximum / Cu^2+ added at which absorbance in the NIR region reached a maximum: sequential titration, pH 7.2
Description: The spectral and colorimetric properties of bi-julolidine compounds were investigated by monitoring the absorption spectral behavior upon addition of increasing concentrations of Cu^2+ in an aqueous buffer medium (50 mM, 2-(4-(2-hydroxyethyl)-1-piperazin-yl)ethanesulfonic acid (HEPES)/CH3CN, 6:4, v/v; pH 7.2). During sequential titration, the absorption spectra of julolidine-carbonohydrazone compound in the visible region gradually shifted from 380 nm to 412 nm with the addition of 1.5 equivalents of Cu^2+ and the colorless solution turned to light green. Increasing the concentration of Cu^2+ in the solution of julolidine-carbonohydrazone compound from 1.5 to 2.0 equivalents led to a change in the solution color from light green to light purple. A new absorption band (λmax=570 nm) appeared in the visible region accompanied by a distinguishable NIR band with λmax centered at 930 nm. The absorbance at 570 nm reached a maximum upon addition of 6.0 equivalents of Cu^2+ with an extinction coefficient (ε) of 2×10^4 M^−1cm^−1 and then decreased with further addition of Cu^2+. The absorbance in the NIR region reached a maximum (ε=5.2×10^4 M^−1cm^−1) upon addition of a total of 8.0 equivalents of Cu^2+ with a gradual shift of λmax from 930 nm to 825 nm, and that remained unchanged upon further addition of Cu^2+. The final solution color of julolidine-carbonohydrazone compound was aqua colored.
During sequential titration of Cu^2+ with julolidine-thiocarbonohydrazone compound, two absorption bands appeared at 570 nm and 980 nm, after addition of 1.0 equivalent of Cu^2+. At that concentration of Cu^2+ ions, the color of the solution of julolidine-thiocarbonohydrazone compound changed from greenish to light purple. The absorbance at 570 nm and 980 nm were enhanced when Cu^2+ concentrations increased from 1.5 to 2.0 equivalents and the purple-colored solution turned to light violet. The absorbance at 570 nm reached a maximum at 5.0 equivalents of Cu^2+ with an extinction coefficient (ε) of 2×10^4 M^−1 cm^−1 and a consequent increase in the intensity of the NIR absorption band was observed. At that concentration of Cu^2+ ions, The solution color of julolidine-thiocarbonohydrazone compound changed from light violet to blue. […] The final solution color of julolidine-thiocarbonohydrazone compound was greenish aqua.

[3] = Fluorometric detection of copper ions; assay type: physicochemical; conditions: for fluorescence emission: excitation at 430 nm, no metal ion
Description: The fluorometric behavior of julolidine-thiocarbonohydrazone compound was studied upon addition of 20.0 equivalents of Li^+, Na^+, Ba^2+, Sr^2+, Mg^2+, […], Ca^2+, Mn^2+, Fe^2+, CO^2+, Ni^2+, Zn^2+, Ag^+, Cd^2+, Hg^2+, Pb^2+ and Cu^2+ in an aqueous buffer medium (50 mM, 2-(4-(2-hydroxyethyl)-1-piperazin-yl)ethanesulfonic acid (HEPES)/CH3CN, 6:4, v/v; pH 7.2). […] The quenched fluorescence of julolidine-thiocarbonohydrazone compound was restored upon treating the julolidine-thiocarbonohydrazone compound —Cu^2+ complex with ethylenediaminetetraacetic acid (EDTA). Fluorescence emission of compound 2 with sequential addition of increasing concentrations (0 to 50 μM) of Cu^2+ is shown in FIG. 5B.

HEK 293T cells = experiment: Detection of Cu^2+ ions in cells using fluorescence microscopy; assay type: cell-based
Description: HEK 293T cells were grown to 50% confluency in a 30 mm dish containing Dulbecco's modified eagle medium (DMEM) and 10% fetal bovine serum (FBS) at 37° C. and 5% CO2. The cells were washed three times with phosphate-buffered saline (PBS) and stained with julolidine-thiocarbonohydrazone compound (10 μM final concentration) in the growth media without FBS for 10 minutes. The adherent cells were washed three times with PBS to remove excess compound. […] Further, the excess of Cu—(ClO4)2.6H2O was washed off with PBS and then supplemented with EDTA (10 μM) in DMEM without FBS for 10 minutes.

[4] = Specificity of Schiff-base compounds towards Cu^2+ ions (absorption spectra); assay type: physicochemical; conditions: for absorption band: absence of Cu^2+ ions; for characteristic absorbance in the NIR region / characteristic absorbance in the visible region: presence of Cu^2+ ions
Description: The specificity of bi-julolidine Schiff-base compounds, compound 1 and compound 2, in detecting Cu^2+ ions were investigated by monitoring the absorption spectral behavior of the compounds. The experiment was also performed using other Schiff-base compounds that were prepared by condensing different salicylaldehyde derivatives with carbohydrazide and thiocarbohydrazide (compounds 3-8, shown below).

Row | SMILES | characteristic absorbance in the NIR region [1] | characteristic absorbance in the visible region [1] | extinction coefficient (ε) in the NIR region at maximum [2] | extinction coefficient (ε) at 570 nm at maximum [2] | NIR λmax at maximum absorbance [2] | final solution color [2] | visual color change of solution [2] | NIR band λmax [2] | new absorption band in the visible region (λmax) [2] | Cu^2+ added at which absorbance at 570 nm reached a maximum [2] | Cu^2+ added at which absorbance in the NIR region reached a maximum [2] | absorption band [4] | characteristic absorbance in the NIR region [4] | characteristic absorbance in the visible region [4] | further results
1 | Oc1c(/C=N/NC(=S)N/N=C/c2cc3c4c(c2O)CCCN4CCC3)cc2c3c1CCCN3CCC2 [compound 2, julolidine-thiocarbonohydrazone] | around 820 nm | 570 nm | 52000 M⁻¹ cm⁻¹ | 20000 M⁻¹ cm⁻¹ | 820 nm | greenish aqua | from light green to light violet, then to light blue and then to greenish aqua | 980 nm | 570 nm | 5.0 equivalents | 15.0 equivalents | around 380 nm | 825 nm | 570 nm | fluorescence emission in the presence of other metal ions ([3]; 20.0 equivalents of Li+, Na+, Ba2+, Sr2+, Mg2+, Ca2+, Mn2+, Fe2+, Co2+, Ni2+, Zn2+, Ag+, Cd2+, Hg2+, Pb2+): no significant changes; fluorescence intensity around 535 nm in the presence of Cu^2+ ([3]; 430 nm excitation, 20.0 equivalents of Cu^2+): quenched; quenched fluorescence after treating the Cu^2+ complex with EDTA ([3]; EDTA): restored; fluorescence emission [3]: about 535 nm; fluorescence emission ([3]; listed as Julolidine-thiocarbonohydrazone compound): around 535 nm; fluorescence in cells after staining (HEK 293T cells; 10 μM, 10 minutes, HEK 293T): presence of fluorescent julolidine-thiocarbonohydrazone compound in cells; intracellular fluorescence after Cu^2+ supplementation (HEK 293T cells; Cu(ClO4)2.6H2O 10 μM, 10 minutes): complete suppression of intracellular fluorescence; intracellular fluorescence after EDTA (HEK 293T cells; EDTA 10 μM, 10 minutes, after Cu^2+ was washed off): recovery of intracellular fluorescence; cell permeability (HEK 293T cells; HEK 293T living cells): cell-permeable
2 | O=C(N/N=C/c1cc2c3c(c1O)CCCN3CCC2)N/N=C/c1cc2c3c(c1O)CCCN3CCC2 [compound 1, julolidine-carbonohydrazone] | 823 nm | 495 nm | 52000 M⁻¹ cm⁻¹ | 20000 M⁻¹ cm⁻¹ | 825 nm | aqua colored | light green, then to light purple, and then to aqua color | 930 nm | 570 nm | 6.0 equivalents | 8.0 equivalents | around 380 nm | 825 nm | 495 nm | absorption in the visible region, shifted from 380 nm ([2]; addition of 1.5 equivalents of Cu^2+): 412 nm

From patent publication US8642764B1, “Julolidine conjugates and methods for their preparation and use” (Jawaharlal Nehru Centre for Advanced Scientific Research, priority 2012, dated 2014)
